Experimental data: ChEMBL document CHEMBL2010687 (Bioorg Med Chem Lett, 2012)

Columns and labels:
[1] = Oral bioavailability in Sprague-Dawley rat at 2 mg/kg; type: ADME, organism-based; details: in vivo
[2] = Metabolic stability in human liver S9 fraction assessed as compound remaining after 1 hr; type: ADME, subcellular; details: read-out: Stability
[3] = Clearance in Sprague-Dawley rat at 2 mg/kg, po; type: ADME, organism-based; set-up: dose 2 mg/kg, route oral; details: in vivo
[4] = molecular target: T1, Growth hormone secretagogue receptor type 1 (Homo sapiens, UniProt Q92847); experiment: Displacement of [125I]Ghrelin from human GHSR1a receptor
T1 sequence (Q92847 whole entry): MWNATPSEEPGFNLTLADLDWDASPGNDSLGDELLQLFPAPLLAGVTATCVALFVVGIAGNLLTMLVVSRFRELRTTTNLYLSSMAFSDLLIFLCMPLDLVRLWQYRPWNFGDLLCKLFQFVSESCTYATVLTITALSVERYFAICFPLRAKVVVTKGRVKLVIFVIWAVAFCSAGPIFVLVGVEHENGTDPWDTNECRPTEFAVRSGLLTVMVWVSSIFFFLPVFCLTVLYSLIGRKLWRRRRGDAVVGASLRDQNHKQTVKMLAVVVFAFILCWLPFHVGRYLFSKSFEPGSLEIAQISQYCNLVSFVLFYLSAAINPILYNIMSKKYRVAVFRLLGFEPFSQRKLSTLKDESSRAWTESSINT

[5] = AUC in Sprague-Dawley rat at 2 mg/kg, po; type: ADME, organism-based; set-up: dose 2 mg/kg, route oral; details: plasma
[6] = Metabolic stability in rat liver S9 fraction assessed as compound remaining after 1 hr; type: ADME, subcellular; details: read-out: Stability
[7] = molecular target: Growth hormone secretagogue receptor type 1 (Mus musculus, UniProt Q99P50); experiment: Antagonist activity at mouse GHSR1 receptor assessed as intracellular Ca2+ concentration by aequorin luminescent assay; type: functional, cell-based
Growth hormone secretagogue receptor type 1 (Mus musculus, UniProt Q99P50), sequence (Q99P50 whole entry): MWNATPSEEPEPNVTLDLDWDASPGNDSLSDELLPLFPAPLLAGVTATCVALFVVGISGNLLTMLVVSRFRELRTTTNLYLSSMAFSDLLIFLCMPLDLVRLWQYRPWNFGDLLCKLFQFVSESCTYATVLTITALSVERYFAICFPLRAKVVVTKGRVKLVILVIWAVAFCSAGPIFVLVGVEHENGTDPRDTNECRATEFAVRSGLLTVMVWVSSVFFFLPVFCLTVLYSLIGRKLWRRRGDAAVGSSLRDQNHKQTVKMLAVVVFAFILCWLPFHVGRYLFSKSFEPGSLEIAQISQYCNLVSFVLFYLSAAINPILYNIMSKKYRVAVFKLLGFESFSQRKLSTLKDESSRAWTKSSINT

[8] = molecular target: T1, Growth hormone secretagogue receptor type 1; experiment: Antagonist activity at human GHSR1a receptor assessed as intracellular Ca2+ concentration by aequorin luminescent assay; type: functional, cell-based

| SMILES | remaining at 1 h [2] [%] | remaining at 1 h [6] [%] | IC50 [8] [µM] | further results |
| --- | --- | --- | --- | --- |
| CC(C)[C@H](C(=O)NC1CCN(Cc2ccccc2)CC1)N1CC(=O)Nc2ccc(Oc3ccccc3)cc2C1=O | 30 | 19 | 0.008 | bioavailability [1]: 6%; CL/F [3]: 143 mL/min/kg; Ki [4]: 0.0044 µM; AUC [5]: 132 ng·h/mL; IC50 [7]: 0.007 µM |
| CC(C)[C@H](C(=O)NC1CCN(Cc2ccccc2)CC1)N1CC(=O)Nc2ccc(Oc3ccc(F)cc3)cc2C1=O | – | – | 0.011 | – |
| Cc1ccc(Oc2ccc3c(c2)C(=O)N([C@@H](C(=O)NC2CCN(Cc4ccccc4)CC2)C(C)C)CC(=O)N3)cc1 | – | – | 0.007 | – |
| Cc1ccccc1Oc1ccc2c(c1)C(=O)N([C@@H](C(=O)NC1CCN(Cc3ccccc3)CC1)C(C)C)CC(=O)N2 | 5 | 3 | 0.003 | – |
| CC(C)[C@H](C(=O)NC1CCN(Cc2ccccc2)CC1)N1CC(=O)Nc2ccc(Oc3cccc(Cl)c3)cc2C1=O | – | – | 0.171 | – |
| CC(C)[C@H](C(=O)NC1CCN(Cc2ccccc2)CC1)N1CC(=O)Nc2ccc(Oc3ccc(Cl)cc3)cc2C1=O | – | – | 0.028 | – |
| COc1ccccc1Oc1ccc2c(c1)C(=O)N([C@@H](C(=O)NC1CCN(Cc3ccccc3)CC1)C(C)C)CC(=O)N2 | 26 | 19 | 0.026 | – |
| COc1cccc(Oc2ccc3c(c2)C(=O)N([C@@H](C(=O)NC2CCN(Cc4ccccc4)CC2)C(C)C)CC(=O)N3)c1 | 22 | 10 | 0.143 | – |
| COc1ccc(Oc2ccc3c(c2)C(=O)N([C@@H](C(=O)NC2CCN(Cc4ccccc4)CC2)C(C)C)CC(=O)N3)cc1 | – | – | 0.079 | – |
| Cc1cc(F)ccc1Oc1ccc2c(c1)C(=O)N([C@@H](C(=O)NC1CCN(Cc3ccccc3)CC1)C(C)C)CC(=O)N2 | 5 | 3 | 0.0002 | – |
| Cc1cccc(C)c1Oc1ccc2c(c1)C(=O)N([C@@H](C(=O)NC1CCN(Cc3ccccc3)CC1)C(C)C)CC(=O)N2 | – | – | 0.001 | – |
| O=C1CN(CC(=O)NC2CCN(Cc3ccccc3)CC2)C(=O)c2cc(Oc3ccccc3)ccc2N1 | – | – | 0.314 | – |
| O=C1CN([C@@H](C(=O)NC2CCN(Cc3ccccc3)CC2)C2CC2)C(=O)c2cc(Oc3ccccc3)ccc2N1 | – | – | 0.012 | – |
| CC(C)[C@@H](C(=O)NC1CCN(Cc2ccccc2)CC1)N1CC(=O)Nc2ccc(Oc3ccccc3)cc2C1=O | – | – | 0.196 | – |
| CC(C)[C@H](C(=O)NC1CCC(Cc2ccccc2)CC1)N1CC(=O)Nc2ccc(Oc3ccccc3)cc2C1=O (stereo not given in full) | 23 | 95 | > 10 | – |
| CC(C)[C@H](C(=O)N1CCC(NCc2ccccc2)CC1)N1CC(=O)Nc2ccc(Oc3ccccc3)cc2C1=O | 62 | 72 | 0.008 | – |
| CC(C)[C@H](C(=O)N1CCC(N[C@H](C)c2ccccc2)CC1)N1CC(=O)Nc2ccc(Oc3ccccc3)cc2C1=O | 27 | 46 | 0.0025 | – |
| CC(C)[C@H](C(=O)N1CCC(NC(C)(C)c2ccccc2)CC1)N1CC(=O)Nc2ccc(Oc3ccccc3)cc2C1=O | 19 | 48 | 0.0165 | – |
| CC(C)[C@H](C(=O)N1CCC(N[C@H](C)C2CCCCC2)CC1)N1CC(=O)Nc2ccc(Oc3ccccc3)cc2C1=O | 30 | 28 | 0.0025 | – |
| CC(C)[C@H](C(=O)N1CCC(NCCC2CCCCC2)CC1)N1CC(=O)Nc2ccc(Oc3ccccc3)cc2C1=O | 76 | – | 0.0041 | – |
| CC(C)[C@H](C(=O)N1CCC(NCCC2CCOCC2)CC1)N1CC(=O)Nc2ccc(Oc3ccccc3)cc2C1=O | – | – | 0.313 | – |
| CC(C)[C@H](C(=O)N1CCC(NCC2CC2)CC1)N1CC(=O)Nc2ccc(Oc3ccccc3)cc2C1=O | 86 | 71 | 0.05 | – |
| CC(C)[C@H](C(=O)NC1CCNCC1)N1CC(=O)Nc2ccc(Oc3ccccc3)cc2C1=O | – | – | > 10 | – |
| CC(C)[C@H](C(=O)NC1CCN(C(=O)c2ccccc2)CC1)N1CC(=O)Nc2ccc(Oc3ccccc3)cc2C1=O | – | – | > 10 | – |
| CC(C)[C@H](C[C@H]1CC[C@@H](NCc2ccccc2)CC1)N1CC(=O)Nc2ccc(Oc3ccccc3)cc2C1=O | – | – | 0.006 | – |
| CC(C)[C@H](C[C@H]1CC[C@@H](NCC2CC2)CC1)N1CC(=O)Nc2ccc(Oc3ccc(F)cc3F)cc2C1=O | 68 | 27 | 0.02 | – |
| CC(C)[C@H](C[C@H]1CC[C@@H](NCC2CC2)CC1)N1CCCc2ccc(Oc3ccc(F)cc3F)cc2C1=O | 92 | 97 | 0.002 | bioavailability [1]: 39%; CL/F [3]: 10 mL/min/kg; AUC [5]: 618 ng·h/mL |
| CC(C)[C@H](C(=O)N1CCC(NCc2ccccc2)CC1)N1CC(=O)Nc2ccc(Oc3ccc(F)cc3F)cc2C1=O | 70 | 65 | 0.0003 | – |
